# Results taken from patent US8435955B2, “Antibacterial deodorant” (priority 2008, dated 2013).
# Columns and labels:
# Deodorization test 1 [1] = settings: Styrene, 0.2 ml of 10% by weight aqueous solution; for Reduction: initial 100 ppm, after 30 minutes; for Concentration after 30 minutes: initial concentration 100 ppm
# Deodorization test 1 [2] = settings: Acetic acid; for Reduction: initial 20 ppm, after 30 minutes; for Reduction / Concentration after 30 minutes: 0.2 ml of 10% by weight aqueous solution; for Concentration after 30 minutes: initial concentration 20 ppm
# Deodorization test 1 [3] = settings: Trimethylamine; for Reduction: initial 20 ppm, after 30 minutes; for Reduction / Concentration after 30 minutes: 0.2 ml of 10% by weight aqueous solution; for Concentration after 30 minutes: initial concentration 20 ppm
# Deodorization test 1 [4] = settings: Toluene, 0.2 ml of 10% by weight aqueous solution; for Reduction: initial 100 ppm, after 30 minutes; for Concentration after 30 minutes: initial concentration 100 ppm
# Deodorization test 1 [5] = settings: Ammonia; for Reduction: initial 100 ppm, after 30 minutes; for Reduction / Concentration after 30 minutes: 0.2 ml of 10% by weight aqueous solution; for Concentration after 30 minutes: initial concentration 100 ppm
# Deodorization test 1 [6] = settings: Acetaldehyde; for Reduction: initial 10 ppm, after 30 minutes; for Reduction / Concentration after 30 minutes: 0.2 ml of 10% by weight aqueous solution; for Concentration after 30 minutes: initial concentration 10 ppm
# Deodorization test 1 [7] = settings: Isovaleric acid; for Reduction: initial 10 ppm, after 30 minutes; for Reduction / Concentration after 30 minutes: 0.2 ml of 10% by weight aqueous solution; for Concentration after 30 minutes: initial concentration 10 ppm
# Deodorization test 1 [8] = settings: Methyl mercaptan; for Reduction: initial 10 ppm, after 30 minutes; for Reduction / Concentration after 30 minutes: 0.2 ml of 10% by weight aqueous solution; for Concentration after 30 minutes: initial concentration 10 ppm
# Deodorization test 1 [9] = settings: Formaldehyde, 0.2 ml of 10% by weight aqueous solution; for Reduction: initial 10 ppm, after 30 minutes; for Concentration after 30 minutes: initial concentration 10 ppm
SMILES,Reduction (Deodorization test 1 [1]),Concentration after 30 minutes (Deodorization test 1 [1]),Reduction (Deodorization test 1 [2]),Concentration after 30 minutes (Deodorization test 1 [2]),Reduction (Deodorization test 1 [3]),Concentration after 30 minutes (Deodorization test 1 [3]),Reduction (Deodorization test 1 [4]),Concentration after 30 minutes (Deodorization test 1 [4]),Reduction (Deodorization test 1 [5]),Concentration after 30 minutes (Deodorization test 1 [5]),Reduction (Deodorization test 1 [6]),Concentration after 30 minutes (Deodorization test 1 [6]),Reduction (Deodorization test 1 [7]),Concentration after 30 minutes (Deodorization test 1 [7]),Reduction (Deodorization test 1 [8]),Concentration after 30 minutes (Deodorization test 1 [8]),Reduction (Deodorization test 1 [9]),Concentration after 30 minutes (Deodorization test 1 [9]),also measured
N=C(N)NCCC[C@H](N)C(=O)O [Arginine],0%,100 ppm,15%,17 ppm,5%,19 ppm,0%,100 ppm,10%,90 ppm,10%,9 ppm,0%,10 ppm,0%,10 ppm,0%,10 ppm,–
N[C@@H](CS)C(=O)O [Cysteine],10%,90 ppm,20%,16 ppm,100%,0 ppm,10%,90 ppm,100%,0 ppm,0%,10 ppm,20%,8 ppm,0%,10 ppm,20%,8 ppm,deodorizing action (in words) (Deodorization test 1 [3]): excellent deodorizing action; deodorizing action (in words) (Deodorization test 1 [5]): excellent deodorizing action
NCC(=O)O [Glycine],60%,40 ppm,90%,2 ppm,100%,0 ppm,60%,40 ppm,100%,0 ppm,80%,2 ppm,90%,1 ppm,100%,0 ppm,70%,3 ppm,deodorizing action (in words) (Deodorization test 1 [2]): good results; deodorizing action (in words) (Deodorization test 1 [3]): excellent deodorizing action; deodorizing action (in words) (Deodorization test 1 [5]): excellent deodorizing action; deodorizing action (in words) (Deodorization test 1 [6]): good results; deodorizing action (in words) (Deodorization test 1 [7]): good results; deodorizing action (in words) (Deodorization test 1 [8]): excellent deodorizing action
NCCCC[C@H](N)C(=O)O [Lysine],0%,100 ppm,0%,20 ppm,10%,18 ppm,0%,100 ppm,10%,90 ppm,10%,9 ppm,0%,10 ppm,0%,10 ppm,0%,10 ppm,–
CSCC[C@H](N)C(=O)O [Methionine],10%,90 ppm,10%,18 ppm,10%,18 ppm,10%,90 ppm,30%,70 ppm,10%,9 ppm,0%,10 ppm,0%,10 ppm,10%,9 ppm,–
O=C(O)[C@@H]1CCCN1 [Proline],0%,100 ppm,0%,20 ppm,5%,19 ppm,0%,100 ppm,10%,90 ppm,20%,8 ppm,0%,10 ppm,0%,10 ppm,0%,10 ppm,–
N[C@@H](Cc1c[nH]c2ccccc12)C(=O)O [Tryptophan],0%,100 ppm,10%,18 ppm,50%,10 ppm,0%,100 ppm,50%,50 ppm,10%,9 ppm,0%,10 ppm,0%,10 ppm,10%,9 ppm,–
CC(C)[C@H](N)C(=O)O [Valine],0%,100 ppm,0%,20 ppm,5%,19 ppm,0%,100 ppm,10%,90 ppm,0%,10 ppm,0%,10 ppm,0%,10 ppm,0%,10 ppm,–
